Patent publication US7842808B2, “Anti-migraine spirocycles” (Bristol-Myers Squibb Company, priority 2002, dated 2010)
Read-outs that look alike come from different tables or passages of the source.

Legend:
[1] = tested on: human cerebral vessels (CGRP-induced dilation); test: Ex Vivo Human Cerebral Artery Assay, reversal of CGRP-induced relaxation; conditions: reversal of 1 nM hCGRP-induced relaxation, vessels pre-contracted with 10 mM KCl
Excerpt: Rationale and Overview. To provided direct evidence of the ability for novel compounds to reverse CGRP-induced dilation in human cerebral vessels, an ex vivo assay was design. Briefly, isolated vessel rings were mounted in a tissue bath where vessels were pre-contracted with potassium chloride (KCl) and fully dilated with hCGRP, then this relaxation was reversed by the cumulative addition of CGRP-receptor antagonists (complete details follow).
Tissue Samples. Autopsy samples of human arteries were obtained from vendors (ABS Inc. or NDRI). All vessels were transported on ice-cold HEPES buffer (composition in mM: NaCl 130, KCl 4, KH2PO4 1.2, MgSO4 1.2, CaCl2 1.8, Glucose 6, NaHCO3 4, HEPES 10, EDTA 0.025). Upon receipt, the vessels were placed in cold Kreb's buffer (composition in mM: NaCl 118.4, KCl 4.7, KH2PO4 1.2, MgSO4 1.2, CaCl2 1.8, Glucose 10.1, NaHCO3 25) saturated with carbogen (5% CO2 and 95% oxygen).
Isolated Tissue Baths. The vessels were cleaned of connective tissues and cut into cylindrical segments of 4-5 mm in length. The vessels were then mounted in tissue baths between two stainless steel hooks; one of which is fixed and the other of which was connected to a force displacement transducer. The vessel tension was continuously recorded using a data acquisition system (Powerlab, ADInstruments, Mountain View, Calif.) connected to the transducer. The tissue baths containing Krebs buffer and mounted vessels were temperature (37° C.) and pH (7.4) controlled with continuous bubbling of carbogen. The artery segments were allowed to equilibrate for about 30-45 min until a stable resting tone was achieved. Prior to the assay, vessels were primed (conditioned) with 100 mM KCl and subsequently washed. The vessels were pre-contracted with 10 mM KCl and fully dilated with 1 nM hCGRP. Concentration-response curves to CGRP-receptor antagonists were performed by the cumulative addition of drugs in half log units in fully dilated vessels. At each concentration, the effects of the drugs were expressed as % reversal of CGRP-induced relaxation in each vessel. The actual assay and data analysis were performed for each vessel individually, fitting the concentration-response data to a four parameter logistic function by non-linear regression analysis, to estimate the EC50 values.

[2] = target: T1, CGRP receptor (SK-N-MC cell membranes) (Homo sapiens, UniProt O60894+Q16602); test: CGRP Binding Assay ([125I]-CGRP radioligand binding, SK-N-MC homogenate); conditions: displacement of [125I]-CGRP, SK-N-MC homogenate; read-out: CGRP binding IC50
T1 construct: endogenous in cells; host or cells: SK-N-MC cells (membrane homogenate)
T1 sequence (Q16602 23-461): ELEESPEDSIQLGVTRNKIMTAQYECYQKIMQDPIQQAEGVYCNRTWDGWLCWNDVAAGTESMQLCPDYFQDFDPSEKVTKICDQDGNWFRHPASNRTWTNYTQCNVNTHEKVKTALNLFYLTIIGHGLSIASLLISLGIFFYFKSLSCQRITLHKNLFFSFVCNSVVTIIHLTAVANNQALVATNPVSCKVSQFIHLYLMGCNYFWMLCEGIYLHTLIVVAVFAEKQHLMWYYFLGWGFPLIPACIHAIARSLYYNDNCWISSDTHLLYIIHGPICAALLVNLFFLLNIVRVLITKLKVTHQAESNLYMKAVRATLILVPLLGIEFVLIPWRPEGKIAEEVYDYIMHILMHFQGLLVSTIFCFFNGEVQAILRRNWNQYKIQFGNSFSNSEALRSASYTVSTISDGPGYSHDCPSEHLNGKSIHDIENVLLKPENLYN
T1 sequence (O60894 27-148): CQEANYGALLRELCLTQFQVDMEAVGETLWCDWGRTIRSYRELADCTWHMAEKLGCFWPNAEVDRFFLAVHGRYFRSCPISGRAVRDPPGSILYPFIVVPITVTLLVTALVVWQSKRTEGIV

[3] = target: T2, human CGRP receptor (SK-N-MC cells) (Homo sapiens, UniProt O60894+Q16602); test: Cyclic AMP Assay, functional antagonism of CGRP-induced cyclic AMP formation; format: cell-based
T2 construct: SK-N-MC cells that endogenously express the human CGRP receptor; endogenous in cells; host or cells: SK-N-MC cells
T2 sequence (Q16602 23-461): as the sequence (Q16602 23-461) above
T2 sequence (O60894 27-148): as the sequence (O60894 27-148) above
Description: Functional Antagonism. Antagonism of the compounds of invention was determined by measuring the formation of cyclic AMP (adenosine 3′5′-cyclic monophosphate) in SK-N-MC cells that endogenously express the human CGRP receptor. […] For cyclic AMP measurements SK-N-MC cells were incubated with 0.3 nM CGRP alone or in the presence of various concentrations of the compounds of invention for 30 min at room temperature. […] Cyclic AMP was extracted using the lysis reagent and its concentration was determined by radioimmunoassay using RPA559 cAMP SPA Direct Screening Assay Kit (Amersham Pharmacia Biotech). IC50 values were calculated using Excel fit.

[4] = SK-N-MC cells, 0.3 nM CGRP, read-out: cAMP Function IC50

O=C1Nc2ccccc2C2(CCN(C(=O)N[C@H](Cc3csc4ccccc34)C(=O)N3CCC(N4CCCCC4)CC3)CC2)O1 [Example 64, N-[(1R)-1-(Benzo[b]thien-3-ylmethyl)-2-[1,4′-bipiperidin]-1′-yl-2-oxoethyl]-1,2-dihydro-2-oxospiro-[4H-3,1-benzoxazine-4,4′-piperidine]-1′-carboxamide]
EC50 [1]: 10 to 100 nM
IC50 [2]: 10 to 100 nM

O=C(NC(Cc1ccc2[nH]ncc2c1)C(=O)N1CCNCC1)N1CCC(N2Cc3ccccc3NC2=O)CC1 (centres unmarked) [Example 39, 4-(2-Oxo-1,4-dihydro-2H-quinazolin-3-yl)-piperidine-1-carboxylic acid[1-(1H-indazol-5-ylmethyl)-2-oxo-2-piperazin-1-yl-ethyl]-amide]
IC50 [2]: 100 to 1000 nM
IC50 [3, 4]: 100 to 1000 nM

C#CCNC(=O)C(CC(=O)N1CCC(N2Cc3ccccc3NC2=O)CC1)Cc1cc(C)c2[nH]ncc2c1 (racemic) [Example 84, (±)-2-(7-Methyl-1H-indazol-5-ylmethyl)-4-oxo-4-[4-(2-oxo-1,4-dihydro-2H-quinazolin-3-yl)-piperidin-1-yl]-N-prop-2-ynyl-butyramide]
IC50 [2]: 10 to 100 nM
IC50 [3, 4]: 10 to 100 nM

Cc1nc2cc(C[C@@H](NC(=O)N3CCC(N4Cc5ccccc5NC4=O)CC3)C(=O)N3CCC(N4CCCCC4)CC3)ccc2[nH]1 [Example 46, (R)-4-(2-Oxo-1,4-dihydro-2H-quinazolin-3-yl)-piperidine-1-carboxylic acid[2-[1,4′]bipiperidinyl-1′-yl-1-(2-methyl-1H-benzoimidazol-5-ylmethyl)-2-oxo-ethyl]-amide]
IC50 [2]: 10 to 100 nM
IC50 [3, 4]: 10 to 100 nM

O=C(C[C@H](Nc1cc(Cl)ccc1[N+](=O)[O-])C(=O)N1CCC(N2CCCCC2)CC1)N1CCC(N2Cc3ccccc3NC2=O)CC1 [Example 87, (L)-1-[1,4′]Bipiperidinyl-1′-yl-2-(5-chloro-2-nitro-phenylamino)-4-[4-(2-oxo-1,4-dihydro-2H-quinazolin-3-yl)-piperidin-1-yl]-butane-1,4-dione]
IC50 [2]: 10 to 100 nM
IC50 [3, 4]: 10 to 100 nM

COC(=O)C(Cc1cc(C)c2[nH]ncc2c1)NC(=O)N1CCC(N2Cc3ccccc3NC2=O)CC1 (racemic) [Example 12, (±)-3-(7-Methyl-1H-indazol-5-yl)-2-{[4-(2-oxo-1,4-dihydro-2H-quinazolin-3-yl)-piperidine-1-carbonyl]-amino}-propionic acid methyl ester]
IC50 [2]: 10 to 100 nM
IC50 [3, 4]: 100 to 1000 nM

CC(C)CN1CCN(C(=O)C(Cc2ccc3[nH]ccc3c2)NC(=O)N2CCC(n3c(=O)[nH]c4ccccc43)CC2)CC1 (racemic) [Example 7, (±)-4-(2-Oxo-2,3-dihydro-benzoimidazol-1-yl)-piperidine-1-carboxylic acid[1-(1H-indol-5-ylmethyl)-2-(4-isobutyl-piperazin-1-yl)-2-oxo-ethyl]-amide]
IC50 [2]: 100 to 1000 nM
IC50 [3, 4]: 100 to 1000 nM

CN(C)C(=O)C(CC(=O)N1CCC(N2Cc3ccccc3NC2=O)CC1)Cc1ccc2[nH]ncc2c1 (racemic) [Example 82, (±)-2-(1H-Indazol-5-ylmethyl)-N,N-dimethyl-4-oxo-4-[4-(2-oxo-1,4-dihydro-2H-quinazolin-3-yl)-piperidin-1-yl]-butyramide]
IC50 [2]: 10 to 100 nM
IC50 [3, 4]: 100 to 1000 nM

CC(C)(C)OC(=O)n1ncc2cc(CC(CC(=O)N3CCC(N4Cc5ccccc5NC4=O)CC3)C(=O)N3CCC(N4CCCCC4)CC3)ccc21 (racemic) [Example 83, (±)-5-{2-([1,4′]Bipiperidinyl-1′-carbonyl)-4-oxo-4-[4-(2-oxo-1,4-dihydro-2H-quinazolin-3-yl)-piperidin-1-yl]-butyl}-indazole-1-carboxylic acid tert-butyl ester]
IC50 [2]: 10 to 100 nM
IC50 [3, 4]: 100 to 1000 nM

Cc1cc(CC(NC(=O)N2CCC3(CC2)N=C(c2ccccc2)NC3=O)C(=O)N(C)C)cc2cn[nH]c12 (racemic) [Example 36, (±)-4-Oxo-2-phenyl-1,3,8-triaza-spiro[4,5]dec-1-ene-8-carboxylic acid[1-dimethylcarbamoyl-2-(7-methyl-1H-indazol-5-yl)-ethyl]amide]
IC50 [2]: 10 to 100 nM
IC50 [3, 4]: 10 to 100 nM

O=C1CC2(CCN(C(=O)N[C@H](Cc3csc4ccccc34)C(=O)N3CCC(N4CCCCC4)CC3)CC2)c2ccccc2N1 [Example 62, N-[(1R)-1-(Benzo[b]thien-3-ylmethyl)-2-[1,4-bipiperidin]-1-yl-2-oxoethyl]-3′,4′-dihydro-2-oxospiro-[piperidine-4,4′(1H)-quinoline]-1-carboxamide]
IC50 [2]: 10 to 100 nM
IC50 [3, 4]: 10 to 100 nM

Cc1cc(CC(NC(=O)N2CCC3(CC2)N=C(c2ccccc2)NC3=O)C(=O)N2CCC(N3CCCCC3)CC2)cc2cn[nH]c12 (racemic) [Example 34, (±)-4-Oxo-2-phenyl-1,3,8-triaza-spiro[4,5]dec-1-ene-8-carboxylic acid {1-(7-methyl-1H-indazol-5-yl methyl)-2-[1,4]bipiperidinyl-1′-yl-2-oxo-ethyl}-amide]
IC50 [2]: < 10 nM
IC50 [3, 4]: < 10 nM

O=C(N[C@H](Cc1csc2ccccc12)C(=O)N1CCC(N2CCCCC2)CC1)N1CCC2(CC1)Cc1ccccc1NC2=O [Example 61, (R)-1-Oxo-3,4-benzo-2,9-diaza-spiro[5.5]undec-3-ene-9-carboxylic acid (1-benzo[b]thiophen-3-ylmethyl-2-[1,4′]bipiperidinyl-1′-yl-2-oxo-ethyl)-amide]
IC50 [2]: 100 to 1000 nM
IC50 [3, 4]: 100 to 1000 nM

Cc1cc(CC(NC(=O)N2CCC3(CC2)OC(=O)Nc2ccccc23)C(=O)N(C)C)cc2cn[nH]c12 (racemic) [Example 27, (±)-[1-Dimethylcarbamoyl-2-(7-methyl-1H-indazol-5-yl)-ethyl]-1′,2′-dihydro-2′-oxospiro-[4H-3′,1-benzoxazine-4,4′-piperidine]-1-carboxamide]
IC50 [2]: 10 to 100 nM
IC50 [3, 4]: 100 to 1000 nM

Cc1cc(CC(CC(=O)N2CCC(N3Cc4ccccc4NC3=O)CC2)C(=O)N2CC(C)OC(C)C2)cc2cn[nH]c12 (racemic) [Example 73, (±)-1-(2,6-Dimethyl-morpholin-4-yl)-2-(7-methyl-1H-indazol-5-ylmethyl)-4-[4-(2-oxo-1,4-dihydro-2H-quinazolin-3-yl)-piperidin-1-yl]-butane-1,4-dione]
IC50 [2]: 10 to 100 nM
IC50 [3, 4]: 10 to 100 nM

O=C(C[C@H](Nc1cc(Cl)ncn1)C(=O)N1CCC(N2CCCCC2)CC1)N1CCC(N2Cc3ccccc3NC2=O)CC1 [Example 88, (L)-1-[1,4′]Bipiperidinyl-1′-yl-2-(6-chloro-pyrimidin-4-ylamino)-4-[4-(2-oxo-1,4-dihydro-2H-quinazolin-3-yl)-piperidin-1-yl]-butane-1,4-dione]
IC50 [2]: 100 to 1000 nM
IC50 [3, 4]: 10 to 100 nM

Cc1nc(N[C@@H](CC(=O)N2CCC(N3Cc4ccccc4NC3=O)CC2)C(=O)N2CCC(N3CCCCC3)CC2)nc2nn[nH]c12 [Example 92, (L)-1-[1,4′]Bipiperidinyl-1′-yl-2-(7-methyl-1H-[1,2,3]triazolo[4,5-d]pyrimidin-5-ylamino)-4-[4-(2-oxo-1,4-dihydro-2H-quinazolin-3-yl)-piperidin-1-yl]-butane-1,4-dione]
IC50 [2]: 10 to 100 nM
IC50 [3, 4]: 100 to 1000 nM

Cc1cc(CC(CC(=O)N2CCC3(CC2)OC(=O)Nc2ccccc23)C(=O)N2CCCCC2)cc2cn[nH]c12 (racemic) [Example 77, (±)-2-(7-Methyl-1H-indazol-5-ylmethyl)-1-(piperidin-1-yl)-4-[1′,2′-dihydro-2′-oxospiro-[4H-3′,1-benzoxazine-4,4′-piperidinyl]-butane-1,4-dione]
IC50 [2]: 10 to 100 nM
IC50 [3, 4]: 10 to 100 nM

O=C(CC(Cc1ccc2[nH]ncc2c1)C(=O)N1CCC2(CC1)OCCO2)N1CCC(N2Cc3ccccc3NC2=O)CC1 (racemic) [Example 81, (±)-1-(1,4-Dioxa-8-aza-spiro[4.5]dec-8-yl)-2-(1H-indazol-5-ylmethyl)-4-[4-(2-oxo-1,4-dihydro-2H-quinazolin-3-yl)-piperidin-1-yl]-butane-1,4-dione]
IC50 [2]: 10 to 100 nM
IC50 [3]: 100 to 1000 nM
